This experiment has as its target T1, human A2a receptor (Homo sapiens, UniProt P29274).
T1 construct: purchased Perkin-Elmer RBHA2AM400UA; host or cells: HEK293 cell membranes
As to the kind of experiment: A2a receptor competition binding assay using Scintillation Proximity technology. As to conditions: membranes from HEK293 cells expressing human A2a receptor; 0.5 nM tritiated radioligand; SPA beads; 1 h room temperature. The essentials:
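Membranes of HEK293 cells expressing human A2a, pretreated with adenosine deaminase, incubated 1 h at room temperature with 0.5 nM tritiated pyrazolotriazolopyrimidine antagonist (final) and compound (3000 to 0.15 nM) on WGA SPA beads in Ca/Mg-free PBS with 10 mM MgCl2. Ki from EC50 via Cheng-Prusoff.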
(In general: In a scintillation proximity assay essentially only radioactivity close to the scintillant gives light.)

Molecules are shown by their SMILES.

T1 sequence (P29274 whole entry): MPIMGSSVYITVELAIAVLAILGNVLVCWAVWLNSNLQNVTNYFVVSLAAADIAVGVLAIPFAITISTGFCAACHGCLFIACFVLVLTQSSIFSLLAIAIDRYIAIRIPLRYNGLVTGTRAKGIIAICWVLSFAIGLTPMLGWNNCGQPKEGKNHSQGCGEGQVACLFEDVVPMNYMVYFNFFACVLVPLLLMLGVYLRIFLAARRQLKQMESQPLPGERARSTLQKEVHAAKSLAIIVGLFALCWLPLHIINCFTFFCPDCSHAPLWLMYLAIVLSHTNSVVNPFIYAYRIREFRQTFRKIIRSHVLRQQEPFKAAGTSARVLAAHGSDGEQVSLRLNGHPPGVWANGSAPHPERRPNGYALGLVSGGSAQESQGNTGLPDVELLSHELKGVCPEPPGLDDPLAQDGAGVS

The term EC50 denotes the concentration at which the effect is half-maximal. Higher therefore signals lower potency in that assay. Compound `COc1cccc2c1nc(N)n1nc(CN3CCc4cccc(-c5cncnc5)c4C3)nc21` [Ex-177, 7-methoxy-2-((8-(pyrimidin-5-yl)-3,4-dihydroisoquinolin-2(1H)-yl)methyl)-[1,2,4]triazolo[l,5-c]quinazolin-5-amine] showed an EC50 of 17 nM.
As to `COc1cccc2c1nc(N)n1nc(CN3CCc4ccc(-c5cnc(C(F)(F)F)nc5)cc4C3)nc21` [Ex-179, 7-methoxy-2-((7-(2-(trifluoromethyl)pydmidin-5-yl)-3,4-dihydroisoquinolin-2(1H)-yl)methyl)-[1,2,4]triazolo[1,5-c]quinazolin-5-amine], the EC50 is 6.1 nM.
Compound `COc1cccc2c1nc(N)n1nc(CN3CCc4ccc(-c5cnn(C)c5)cc4C3)nc21` [Ex-180] came in with an EC50 of 9 nM.
As for `COc1cccc2c1nc(N)n1nc(CN3CCc4ccc(-c5cnn(C)c5C(F)(F)F)cc4C3)nc21` [Ex-182, 7-methoxy-2-((7-(1-methyl-5-(trifluoromethyl)-1H-pyrazol-4-yl)-3,4-dihydroisoquinolin-2(1H)-yl)methyl)-[1,2,4]triazolo[1,5-c]quinazolin-5-amine], the figure is 2.8 nM; as for `COc1cccc2c1nc(N)n1nc(CN3CCc4ccc(-c5cn(C)nc5C(F)(F)F)cc4C3)nc21` [Ex-184, 7-methoxy-2-((7-(1-methyl-3-(trifluoromethyl)-1H-pyrazol-4-yl)-3,4-dihydroisoquinolin-2(1H)-yl)methyl)-[1,2,4]triazolo[1,5-c]quinazolin-5-amine], 2.9 nM.
For `COc1cccc2c1nc(N)n1nc(CN3CCc4ccc(-c5ccccc5C(F)(F)F)cc4C3)nc21` [Ex-185, 7-methoxy-2-((7-(2-(trifluoromethyl)phenyl)-3,4-dihydroisoquinolin-2(1H)-yl)methyl)-[1,2,4]triazolo[1,5-c]quinazolin-5-amine], the concentration for a half-maximal effect (EC50) was 11.2 nM.
`COc1cccc2c1nc(N)n1nc(CN3CCc4ccc(-c5cnc(N)nc5C(F)(F)F)cc4C3)nc21` [Ex-186, 2-((7-(2-amino-4-(trifluoromethyl)pyrimidin-5-yl)-3,4-dihydroisoquinolin-2(1H)-yl)methyl)-7-methoxy-[1,2,4]triazolo[1,5-c]-quinazolin-5-amine] gave an EC50 of 3.9 nM.
In the case of `COc1cccc2c1nc(N)n1nc(CCN3CCc4ccc(-c5cnc(C(F)(F)F)nc5)cc4C3)nc21` [Ex-187, 7-methoxy-2-(2-(7-(2-(trifluoromethyl)pyrimidin-5-yl)-3,4-dihydroisoquinolin-2(1H)-yl)ethyl)-[1,2,4]triazolo[1,5-c]quinazolin-5-amine], the EC50 came to 2.9 nM.
`Nc1nc2c(Br)cccc2c2nc(CN3CCc4cccnc4C3)nn12` [Ex-194]: the EC50 worked out at 8.8 nM.
For the compound `Nc1nc2c(Br)cccc2c2nc(CN3Cc4cccnc4C3)nn12` [Ex-195], a half-maximal response (EC50) required 16.6 nM.
Consider `N#Cc1cccc2c1nc(N)n1nc(CN3CCc4cccnc4C3)nc21` [Ex-196, 5-amino-2-((5,6-dihydro-1,7-naphthyridin-7(8H)-yl)methyl)[1,2,4]triazolo[1,5-c]quinazoline-7-carbonitrile], for which the EC50 turned out to be 274 nM.
Regarding `N#Cc1cccc2c1nc(N)n1nc(CN3Cc4cccnc4C3)nc21` [Ex-197], the EC50 came to 612 nM.
With `COCc1cccc2c1nc(N)n1nc(CN3Cc4cccnc4C3)nc21` [Ex-198, 2-((5H-Pyrrolo[3,4-b]pyridin-6(7H)-yl)methyl)-7-(methoxymethyl)-[1,2,4]triazolo[1,5-c]quinazolin-5-amine], the response was half-maximal at 207 nM (EC50).
As for `COCc1cccc2c1nc(N)n1nc(CN3CCc4cccnc4C3)nc21` [Ex-199], the EC50 came out at 199 nM.
As to `Cc1cccc2c1nc(N)n1nc(CN3Cc4cccnc4C3)nc21` [Ex-200, 2-((5H-pyrrolo[3,4-b]pyridine-6(7H)-yl)methyl)-7-methyl-[1,2,4]triazolo[1,5-c]quinazolin-5-amine], a half-maximal response (EC50) required 35.5 nM.
In the case of `Cc1cccc2c1nc(N)n1nc(CN3CCc4cccnc4C3)nc21` [Ex-201], a half-maximal response (EC50) required 21.7 nM.
`Nc1nc2c(OCCF)cccc2c2nc(CN3CCc4cccnc4C3)nn12` [Ex-202] came in with an EC50 of 147 nM.
Regarding `CCOc1cccc2c1nc(N)n1nc(CN3Cc4cccnc4C3)nc21` [Ex-203, 2-((5H-pyrrolo[3,4-b]pyridin-6(7H)-yl)methyl)-7-ethoxy-[1,2,4]triazolo[1,5-c]quinazolin-5-amine], the EC50 came to 88.3 nM.
Take `CCOc1cccc2c1nc(N)n1nc(CN3CCc4cccnc4C3)nc21` [Ex-204, 2-((5,6-dihydro-1,7-naphthyridin-7(8H)-yl)methyl)-7-ethoxy-[1,2,4]triazolo[1,5-c]quinazolin-5-amine]: the EC50 is 40.7 nM.
For `Nc1nc2c(OCF)cccc2c2nc(CN3CCc4cccnc4C3)nn12` [Ex-205, 2-((5,6-dihydro-1,7-naphthyridin-7(8H)-yl)methyl)-7-(fluoromethoxy)-[1,2,4]triazolo[1,5-c]quinazolin-5-amine] the value was 10.9 nM; for `COc1cccc2c1nc(N)n1nc(C[C@@H](C)N3CCc4nc(C)oc4C3)nc21` [Ex-211, (R)-7-methoxy-2-(2-(2-methyl-6,7-dihydrooxazolo[5,4-c]pyridin-5(4H)-yl)propyl)-[1,2,4]triazolo[1,5-c]quinazolin-5-amine], 3 nM.
With `COc1cccc2c1nc(N)n1nc(C[C@H](C)N3CCc4nc(C)oc4C3)nc21` [Ex-212, (S)-7-methoxy-2-(2-(2-methyl-6,7-dihydrooxazolo[5,4-c]pyridin-5(4H)-yl)propyl)-[1,2,4]triazolo[1,5-c]quinazolin-5-amine], the concentration for a half-maximal effect (EC50) stood at 6.1 nM.
`COc1cccc2c1nc(N)n1nc(C[C@@H](C)N3CCc4oc(C)nc4C3)nc21` [Ex-214, (R)-7-methoxy-2-(2-(2-methyl-6,7-dihydrooxazolo[4,5-c]pyridin-5(4H)-yl)propyl)-[1,2,4]triazolo[1,5-c]quinazolin-5-amine] had an EC50 of 29 nM.
For `COc1cccc2c1nc(N)n1nc(C[C@H](C)N3CCc4oc(C)nc4C3)nc21` [Ex-215, (S)-7-methoxy-2-(2-(2-methyl-6,7-dihydrooxazolo[4,5-c]pyridin-5(4H)-yl)propyl)-[1,2,4]triazolo[1,5-c]quinazolin-5-amine] the value was 5.7 nM.
Compound `COc1cccc2c1nc(N)n1nc(C[C@@H](C)N3CCc4nc(C)sc4C3)nc21` [Ex-216, (R)-7-methoxy-2-(2-(2-methyl-6,7-dihydrothiazolo[5,4-c]pyridin-5(4H)-yl)propyl)-(1,2,4]triazolo[1,5-c]quinazolin-5-amine] displayed an EC50 of 3 nM.
For `COc1cccc2c1nc(N)n1nc(C[C@@H](C)N3CCn4nc(C)cc4C3)nc21` [Ex-221, (R)-7-methoxy-2-(2-(2-methyl-6,7-dihydropyrazolo[1,5-a]pyrazin-5(4H)-yl)propyl)-[1,2,4]triazolo[1,5-c]quinazolin-5-amine], a half-maximal response (EC50) required 3.9 nM.
In the case of `COc1cccc2c1nc(N)n1nc(CCCN3Cc4cccnc4C3)nc21` [Ex-227, 2-(3-(5H-pyrrolo[3,4-b]pyridin-6(7H)-yl)propyl)-7-methoxy-[1,2,4]triazolo[1,5-c]quinazolin-5-amine], the EC50 is 7.7 nM.
As to `COc1cccc2c1nc(N)n1nc(CCCN3Cc4cccc(F)c4C3)nc21` [Ex-228, 2-(3-(4-fluoroisoindolin-2-yl)propyl)-7-methoxy-[1,2,4]triazolo[1,5-c]quinazolin-5-amine], the midpoint of the response, the EC50, lay at 7.8 nM.
`COc1cccc2c1nc(N)n1nc(CCCN3Cc4ccc(F)cc4C3)nc21` [Ex-229] had an EC50 of 14.8 nM.

(Values after patent publication US10011615B2, “Heterobicyclo-substituted [1,2,4]triazolo[1,5-c]quinazolin-5-amine compounds with A2A anatagonist properties” (Merck Sharp & Dohme Corp., priority 2012, dated 2018).)
